Here are results for 2 molecules from patent publication US20140309295A1, “ANTIEPILEPTIC, HYPOCHOLESTEROLEMIC AND NEUROPROTECTIVE COMPOUND” (NEURON BIOPHARMA, S.A., priority 2009, published 2014).

Structures are written as SMILES. Peptide text beside a SMILES is read from it. * marks the point of attachment. Cbz = O=C(OCc1ccccc1)*; CH2F = FC*

Data set [1] deals with human neuroblastoma SK-N-MC cells. As to the kind of experiment: Inhibition of camptothecin-induced apoptosis by flow cytometry (sub-G1). The format is cell-based. The following applies: 50 μM Z-VAD-fmk; 50 μM camptothecin. The method, then: The assay was performed on human neuroblastoma SK-N-MC cells in culture from the American Type Culture Collection (ATCC), in all cases strict rules of sterility were followed and the manipulation was performed in class II biological safety cabinets following European standard EN 12469. The cells were maintained in the following culture medium: Minimum Essential Medium Eagle (MEM) supplemented with 1 mM sodium pyruvate, 2 mM L-glutamine, 0.1 mM non-essential amino acids, 0.05 mg/ml gentamicin and 10% fetal bovine serum.
The inhibition caused by compound NST0037 against apoptosis (programmed cell death) caused by treatment with camptothecin which inhibits the enzyme Topoisomerase I, which prevents DNA duplication and triggers apoptotic cell death, was analyzed. These cells, not exceeding 15 passages, were seeded on 6-well plates treated for adherent cells with a cell concentration of 8×10^5 cells/well and 7×10^5 cells/well for the assay with pretreatment; 2 wells of the plate were seeded for each condition of the assay.
After 24 hours of cell incubation at 37° C. and 5% CO2, the cell treatments were performed with 2 ml of total volume for the following conditions: • Control: culture medium (medium) • Camptothecin: medium plus camptothecin 50 μM. • Camptothecin plus Z-VAD-fmk: medium plus 50 μM camptothecin plus 50 μM Z-VAD-fmk, as positive inhibition control. • Camptothecin plus NST0037: medium plus 50 μM camptothecin plus NST0037 at 10, 40 or 100 μM.
In the assay with pretreatment, the cells were previously treated with 40 μM of NST0037, 100 μM of mevalonate or both together for 24 hours and then they were treated with 50 μM camptothecin, the rest of the procedure was similar to the assay without pretreatment.
The cells were incubated (at 37° C. and 5% CO2) with these treatments for 6 hours, after which time they were collected along with their culture medium and centrifuged at 300×g for 5 minutes. The medium was removed, a washing was performed with PBS and the cells were fixed for 2 minutes with 500 μl of 70% ethanol at −20° C. Once fixed, they were centrifuged at 400×g for 5 minutes, washed with PBS and 0.05 mg/ml propidium iodide, diluted in cycling buffer (0.1% sodium citrate, 0.3% Nonidet P-40 and 0.02 mg/ml RNase) were added and they were incubated for 1 hour at 37° C. After this time they were analyzed by flow cytometry, comparing the fluorescence of propidium iodide against the amount of DNA. The percentage of apoptosis was measured on the sub-G1 region of each of the conditions.

The test system of the next data set is caspase 3/7. As to the kind of experiment: Inhibition of camptothecin-induced activation of caspase 3/7 in SK-N-MC cells. The format is cell-based, human. The following applies: 50 μM Z-VAD-fmk; 50 μM CPT. As to the method:
The assay was performed on human neuroblastoma SK-N-MC cells in culture from the American Type Culture Collection (ATCC), in all cases strict rules of sterility were followed and the manipulation was performed in class II biological safety cabinets following European standard EN 12469. The cells were maintained in the following culture medium: Minimum Essential Medium Eagle (MEM) supplemented with 1 mM sodium pyruvate, 2 mM L-glutamine, 0.1 mM non-essential amino acids, 0.05 mg/ml gentamicin and 10% fetal bovine serum. The induction of apoptosis on the cells in culture was performed by means of incubation with camptothecin (CPT), which triggers cell apoptosis activation. The apoptosis was determined by means of the measurement of the activation of effector caspases, caspase 3 or caspase 7, for which a kit for the fluorometric detection of active caspase 3/7 (Apo-ONE® Homogeneous Caspase-3/7, Promega) was used. The active caspase 3 or 7 of the cells cause the rupture of a substrate, which leads to fluorescence emission, which is read by means of a fluorometer. The effect of the pretreatment of compound NST0037 at 10 and 40 μM on the activation of caspase 3/7 caused by 50 μM of camptothecin (CPT) in the SK-N-MC cells was thus analyzed. These cells, not exceeding 15 passages, were seeded on 96-well plates treated for adherent cells with a cell concentration of 5×10^4 cells/well, 3 wells of the plate were seeded for each condition of the assay. After 24 hours of cell incubation at 37° C. and 5% CO2, the pretreatment with NST0037 at 10 and 40 μM was performed. […] On the following day, fluorescence was measured (499/521 nm, […]).

In another data set the test system is adult zebrafish. As to the kind of experiment: Lethality by constant exposure in water (4 days) in adult zebrafish (OECD 203). To be noted: for histopathology: ovary / Mortality (dead animals/total): 4 days. The format is in vivo. The method, then: The object of this assay is to determine the acute lethal toxicity of a substance on freshwater fish. Acute toxicity is the distinguishable adverse effect induced in an organism as a result of the exposure to a given substance for a short time period (days).
The deaths of the animals under study during the entire time of the assay were recorded as a toxicity parameter.
To that end, the fish that survived the treatment were sacrificed at 4 days post-treatment (previously anesthetized) and the samples (whole fish) were included in paraffin. The hematoxylin-eosin staining was subsequently performed in order to conduct the histopathological studies, obtaining a minimum of 6 longitudinal sections per animal, for the purpose of collecting different study areas of the same organ. The following organs were studied: brain, kidney, pancreas, intestine, eye, gills, ovary, testicle, muscle and liver.

In the next data set the test system is zebrafish embryo. As to the kind of experiment: Biosafety in zebrafish embryo (OECD C15, semi-static, 9 days). Format: in vivo, Danio rerio. The method, then: The fertilized eggs were obtained by natural mating of the zebrafish (Danio rerio, AB strain). A total of 8-10 pairs were used for each cross and a total of 200-250 eggs were generated on average per pair.
To assure exposure in the earliest stages of development, the eggs were quickly transferred (a minimum of 50 per condition) to another Petri dish with solutions of the compounds to be tested. […] Each experiment was performed in triplicate.
The studies were conducted in a total of 9 days post-fertilization, in which the treatment was renewed every day, thus conducting a semi-static assay.
The results at the end of the experiment allowed collecting the percentage of healthy larvae which reach the end of the experiment, defined as the number of live larvae and without symptoms of external physiopathological anomalies (morphological and/or behavioral), this being a parameter determining the biosafety of a substance under study and is complementary to the survival rates and to the LD50.
The anomalies recorded in the study are described below: • Intracranial thrombosis: a clot inside the blood vessel, in this case of any cerebral vessel. • Cardiac thrombosis: occurs in a cardiac vessel. • Cardiac edema (or hydrops): accumulation of fluid in the intercellular tissue space and also in the cavities of the organism. In the case of the heart, it causes the accumulation of fluid in the pericardial sac. • Malformation: a noticeable difference in the shape of the body or part of the body, or organ of the body (internal or external) compared with the average shape of the part in question.
The cardiac rhythm of the zebrafish embryos-larva was determined by means of visual analysis in stereomicroscopy, determining the heartbeat with the aid of a manual counter for a period of one minute.

A further data set deals with zebrafish larvae. Put plainly: Acute toxicity assay in zebrafish larvae (24 hours). Format: in vivo, Danio rerio. To be noted: for Mortality (dead larvae/total): 1 day. The method, then:
To evaluate the biosafety of compound NST0037, its toxicological effects on the zebrafish larvae model were analyzed by means of determining the safety parameters of the OECD C15 protocol.
The fertilized eggs were obtained by natural mating of the zebrafish (Danio rerio, AB strain). A total of 8-10 pairs were used for each cross and a total of 200-250 eggs were generated on average per pair. The eggs were collected immediately after spawning and were washed with dilution water (CaCl2.2H2O2 0.29 g/L, MgSO4.7H2O2 0.12 g/L, NaHCO3 0.065 g/L, KCl 0.006 g/L), the pH being adjusted to 7.8±0.2, in accordance with EC Regulation 440/2008, method C.1, and were deposited in a Petri dish.
The embryos were developed normally until 96 hours post-fertilization in their growth medium. […] […]. Each experiment was performed in triplicate.
The studies were conducted for 24 hours of treatment, thus performing an acute toxicity assay. […].
After the time of exposure of the substances under study, the record of the mortality of the larvae was determined. […].
[…]. The percentage of healthy larvae was defined as the number of live larvae without symptoms of external physiopathological anomalies (morphological and/or behavioral), the latter being a parameter determining the biosafety of a substance under study and is complementary to the survival rates and to LD50. […].
The anomalies recorded in the study are described below: • Thrombosis in the yolk sac: it is a clot inside a blood vessel, in this case of any vessel irrigating the yolk. • Cardiac thrombosis: occurs in a cardiac vessel. • Cardiac edema (or hydrops): accumulation of fluid in the intercellular tissue space and also in the cavities of the organism. In the case of the heart, it causes the accumulation of fluid in the pericardial sac.

In the case of `COC(=O)C[C@H](NC(=O)[C@H](C)NC(=O)[C@@H](NC(=O)OCc1ccccc1)C(C)C)C(=O)CF` [Z-VAD-fmk, reference compound] (Cbz-Val-Ala-Asp(OMe)-CH2F), the “inhibition of apoptosis caused by camptothecin (positive inhibition control)” value in data set [1] was “specifically inhibited the apoptosis caused by camptothecin”. Besides, the “inhibition of activation of caspase 3/7 (inhibition control)” value in the data set with caspase 3/7 is on record as “completely inhibited the activation of caspase 3/7”.

Take `CCC(C)(C)C(=O)O[C@H]1C[C@@H](C)C=C2C=C[C@H](C)[C@H](CC[C@@H]3C[C@@H](O)CC(=O)O3)[C@H]21` [simvastatin, reference compound]: the “histopathology: ovary” value with adult zebrafish (30 mg/kg) is on record as “also presented histopathological damage in the ovary”; in the data set on adult zebrafish (100 mg/Kg), “presented ovarian damage”. Further, the “Mortality (dead animals/total)” value was 0/7 with adult zebrafish (Dose 1 mg/kg); 0/7 in the data set with adult zebrafish (Dose 3.2 mg/kg); 0/7 with adult zebrafish (Dose 10 mg/kg); 0/7 in the data set on adult zebrafish (Dose 32 mg/kg); 6/7 with adult zebrafish (Dose 100 mg/kg). The same molecule registered a percentage of mortality in the data set on adult zebrafish (day 4 post-treatment (100 mg/kg group)) of 86%. Also, in the data set with zebrafish embryo (0.2 mg/L), the “percentage of larvae with malformations or anomalous appearance” value was “significant percentage of anomalies or toxicological problems”. The “survival rate of embryos-larvae” value in the data set on zebrafish embryo (high dose (2 mg/L, FIG. 24)) is “more toxic, since the reduction of the survival rate started earlier in time”. For the same molecule, the “reduction of the cardiac rhythm vs controls” value in the data set on zebrafish embryo (increasing doses up to 2 mg/L, 72 hours post-treatment) is given as “statistically significant reduction with respect to the controls after the dose of 0.06”. In addition, the “survival rate of embryos-larvae vs controls” value in the data set with zebrafish embryo (lower dose (FIG. 25: NST0037 0.2 mg/L)) was “caused a significant reduction of the survival rate”. Also, in the data set on zebrafish larvae (24 hours exposure), the “percentage of larvae with toxicological symptomatology (anomalous appearance)” value is reported as “induced a larger percentage of larvae with toxicological symptomatology than compound NST0037”. Further, the “Mortality (dead larvae/total)” value in the data set on zebrafish larvae (Dose 10 mg/Kg), with zebrafish larvae (Dose 30 mg/Kg), in the data set on zebrafish larvae (Dose 100 mg/Kg), in the data set on zebrafish larvae (Dose 300 mg/Kg) and in the data set with zebrafish larvae (Dose 1000 mg/Kg) was 0/30 each time. In addition, the “percentage of healthy larvae” value with zebrafish larvae (highest study dose (1000 mg/Kg), 24 hours) turned out to be 53.3±8.8%.
